Legend:
RPE-1 p53 KO cells = test: clonogenic survival assay, RPE-1 p53 KO; type: cell-based, human; conditions: 24 h, n = 3
Method: Fig. 4 USP7 facilitates FAN1 localization and function during ICL repair. A QIBC analysis of chromatin-bound GFP-FAN1 foci in U2OS^eGFP-FAN1 cells transfected with either non-targeting (Ctrl), USP7 or FANCD2 siRNA oligos. 24 h later, cells were either mock-treated (–) or treated (+) with MMC (150 ng/ml) for 24 h. Color-coded scatterplots (from grey to green) indicate the number of GFP-FAN1 foci per nucleus from one biological replicate. Mean (solid line) and standard deviation (SD) from the mean (dashed lines) are indicated. Representative images are shown (bottom). Scale bar: 10 μm. This experiment was repeated three times. B QIBC analysis of endogenous FANCD2 foci in U2OS^eGFP-FAN1 cells transfected with either non-targeting (Ctrl) or the indicated siRNA oligos. 24 h later, cells were either mock-treated (−) or treated (+) with MMC (150 ng/ml) for 24 h. […] 24 h later, cells were either mock-treated (−) or treated (+) with MMC (1 μg/ml) for 48 h and whole-cell lysates were analysed by immunoblotting. […] Relative FAN1, cleaved PARP-1 or cleaved Caspase-3 protein levels were determined by quantification of the respective band intensity (normalized to GAPDH) with the ImageJ software. […]
HeLa and RPE-1 p53 KO cells were transfected with the indicated siRNA. […] For analysis, plates were scanned and analysed with the ImageJ Plugin ColonyArea using the parameter “intensity percent”.

FAN1-USP7 = test: in situ proximity ligation assay (PLA), FAN1-USP7 association; type: cell-based, human; conditions: HeLa cells, MMC 150 ng/ml, 24 h
Method: HeLa parental and FAN1 KO cells were grown in the absence or presence of MMC (150 ng/ml) for 24 hours. Cells were pre-extracted with CSK buffer containing 0.5% of Triton™ X-100 (Sigma–Aldrich) for 5 min on ice and fixed in 4% formaldehyde in PBS (w/v) for 20 min at room temperature (RT). Coverslips were then washed with PBS and stored overnight at 4 °C. In situ PLA was performed using Duolink PLA technology (Sigma-Aldrich) according to the manufacturer’s instructions. In brief, coverslips were blocked for 30 min at 37 °C with blocking solution and then incubated with the respective primary antibodies for 2 h at 37 °C. Coverslips were washed three times for 5 min in Wash Buffer A (0.01 M Tris, 0.15 M NaCl, and 0.05% Tween 20). Then, Duolink anti-Mouse PLUS and anti-Rabbit MINUS PLA probes were coupled to the primary antibodies for 1 h at 37 °C. After three wash steps in Wash buffer A for 5 min, the PLA probes were ligated for 30 min at 37 °C. Coverslips were then washed three times for 5 min in Wash buffer A. Amplification using the “Duolink In Situ Detection Reagents FarRed” (Sigma-Aldrich) was performed at 37 °C for 100 min. […] Lastly, the coverslips were mounted using Vectashield Mounting Media (Vector Laboratories) containing DAPI, sealed and imaged on a Leica DMI 6000 fluorescence microscope at x63 magnification. […]

SMILES: CO[C@@]12[C@H](COC(N)=O)C3=C(C(=O)C(C)=C(N)C3=O)N1C[C@@H]1N[C@@H]12 [MMC, Mitomycin C]
- MMC sensitivity, FAN1/USP7 co-depletion (RPE-1 p53 KO cells): did not enhance sensitivity beyond individual knock-down of FAN1
- MMC sensitivity, FANCD2-depleted (RPE-1 p53 KO cells): strongest MMC sensitivity
- PLA signals, FAN1-USP7 association (FAN1-USP7): significantly increased in numbers
